# Assay results as given in a melting point compilation (Tetko et al.; mined from patent text by program, amines drawn as free bases though some values may be those of a salt).
row,melting point [°C],Structure (SMILES)
1,270 to 271,CC(=O)Nc1ccccc1-c1nc(C)c(-c2cccnc2)[nH]1
2,76 to 78,CCn1cc(-c2cc(-c3nc(C(C)C)[nH]c3-c3cccc(C)n3)ccc2F)cn1
3,357 to 358,O=c1[nH]c2cc(Cl)ccc2c(O)c1-c1ccccc1Br
4,163 to 166,Brc1ccc2c(ccc3cc(Br)ccc32)c1
5,191 to 193,CC(Cl)(Cl)C(NC(=O)c1cc(F)cc(F)c1)NC(=NC#N)Nc1cccnc1 (stereo unspecified)
6,275,Cn1cc(-c2ccc3nnc(C(F)(F)c4ccc5nc(NC(=O)C6CC6)cn5n4)n3c2)cn1
7,175,Cc1cc(OS(=O)(=O)C(F)(F)F)ccc1-c1cc(C(F)(F)F)nn1-c1ccc(S(C)(=O)=O)cc1
8,280,N#Cc1cc(C(=O)NNC(=O)c2occc2-c2ccncc2)ccc1O
9,177 to 180,COc1ccc(/C=C/C(=O)c2ccc(CC3SC(=O)NC3=O)cc2)cc1 (stereo unspecified)
10,190 to 193,Cc1cccc(NC(=O)NC2N=C(C(C)C)c3cccc(C)c3N(CC(=O)N3CC4CCC(CC4)C3)C2=O)c1 (stereo unspecified)
11,142 to 144,CCOC(=O)c1nnc(S)n1Cc1ccc(OC)cc1
12,191 to 192,O=C1OC(c2ccc(F)cc2)C(Cn2cncn2)(c2ccc(Cl)cc2Cl)O1 (stereo unspecified)
13,247 to 251,Cc1[nH]c(C(=O)N2CCC(C(=O)NCCCN(C)C)CC2)c(C)c1-c1nc2ccc(C(=O)c3ccccc3)cc2[nH]1
14,201 to 203,COc1cc(Nc2nc3cccc(-c4ccc(S(=O)(=O)N5CCOCC5)cc4)c3o2)cc(OC)c1OC
15,268 to 270,COc1ccc2nc3c(cc2c1)c(C(N)=O)nn3C
16,234 to 236,COc1cc(C(=O)n2c3c(c4ccccc42)CC(C(=O)O)CC3)cc(OC)c1OC (stereo unspecified)
17,123 to 125,Cn1cc(C2=C(c3c4n(c5ccccc35)CCC3(CCCC3NC(=O)OC(C)(C)C)C4)C(=O)OC2=O)c2ccccc21 (stereo unspecified)
18,85 to 87,Cc1cccc2c1nc(COc1ccc(Cl)cc1)n2CCC(C)CN1CCCC1 (racemic)
19,89.5 to 90.3,CCOC(=O)C(NC(=O)c1ccc(Cl)cc1)C(=O)OCC
20,66 to 70,COc1cccc(C(=C/C=C/C(=O)NCCCCCCc2cccnc2)c2cccc(OC)c2)c1
21,195 to 197,O=C(NNC(=O)c1occ(-c2ccccc2)c1-c1ccccc1)c1ccsc1
22,196 to 198,O=C(CNC(=O)c1ccc(N2CCN(C(=O)c3ccccc3C(F)(F)F)CC2)nn1)c1ccccc1
23,166 to 168,O=C(O)CC(=O)Nc1ccc2c(c1)c(=O)[nH]c(=O)n2CCCCN1CCC(OC(c2ccccc2)c2ccccc2)CC1

row,melting point [°C],Structure (SMILES)
1,190 to 192,CON=C(Nc1nc(C)cc(C)n1)NS(=O)(=O)c1ccccc1-c1ccccc1
2,108 to 112,COC(=O)c1cc(OCc2ccccc2)ccc1O
3,231,O=C1NCCN(NC(=O)c2cc(OCc3ccccc3)c(OCc3ccccc3)cn2)C1=O
4,> 300,O=S(=O)(O)c1ccc(Nc2ncnc3ccc(Cl)cc23)cc1
5,147 to 148,CCOC(=O)c1c(CN(CC)CC)nc2sc3c(c2c1-c1ccc(OC)c(OC)c1)CCN(S(C)(=O)=O)C3
6,103 to 107,Nc1cccc(OCc2ncc3ccccc3n2)c1
7,141 to 142,CCOC(=O)c1c(CN(CC)CC)nc2sc3ccncc3c2c1-c1ccc(OC)c(OC)c1
8,111 to 112,O=[N+]([O-])c1ccc(-c2cccs2)cc1-c1cccs1
9,152 to 155,COCCn1cc(C(=O)N2CCC(c3cc(CNC(=O)C(F)(F)F)ccc3F)CC2)c2c(-c3ccncc3)cccc21
10,168 to 170,CC(C)(C)c1cc(SCC(=O)Nc2c(Cl)cccc2Cl)cc(C(C)(C)C)c1O
11,133 to 134,CCN1c2ncc(CCc3ccnc(CO)c3)cc2C(=O)N(C)c2ccc(Cl)nc21
12,116 to 117,CCCc1ccc(OCc2ccc(OCc3nc(-c4ccccc4)oc3C)cc2)c(CC(=O)O)c1
13,177 to 179,COc1ccccc1Oc1c(Cl)nc(-c2ccncc2)nc1NS(=O)(=O)c1ccc(C)cn1
14,167,O=c1c2cccnc2c(-c2cccc([N+](=O)[O-])c2)nn1-c1ccccc1
15,154 to 155,O=C(O)CCCC=C(c1cccnc1)c1cccc(NC(=S)Nc2ccc(Cl)cc2Cl)c1
16,110 to 111,CC(C)=CCCOc1c(-c2ccc(S(C)(=O)=O)cc2)cnn(-c2cccc(Cl)c2)c1=O
17,230 to 232,CCc1cc(-c2ccc(Cl)cc2)nc2c(C(=O)Nc3cccc(S(C)(=O)=O)c3)cnn12
18,220 to 226,CN(C)c1ccc(NC(=O)Nc2ccc3c(ccn3C)c2)cn1
19,140 to 142,COc1cccc(C2=C(CC(C)=O)C(=O)NCCC2)c1
20,194,Clc1nc2ccccc2c2c(CCC3CCNCC3)n(-c3ccccc3)nc12
21,308 to 310,CC(=O)N1CCn2c(c(C3=C(c4cn(C)c5ccccc45)C(=O)NC3=O)c3ccccc32)C1
22,134 to 135,Nc1c(-c2ccc(OC(F)(F)F)cc2)nnn1-c1ccc(C(F)(F)F)cc1F

# More lines, now with the values behind:
row,Structure (SMILES),melting point [°C]
1,CCCCOc1ccc(S(=O)(=O)N2CCC(OS(C)(=O)=O)C2)cc1 (stereo unspecified),80 to 81
2,O=C1NCC(COc2cccc3c2SCCC3)O1 (stereo unspecified),152 to 153
3,Cn1c(=O)c2c(-c3nc(C4CC4)no3)ncn2c2ccccc21,184 to 190
4,O=CN1CC2CCCc3cccc1c32 (stereo unspecified),93 to 94
5,OC1Cc2c(Cl)cccc2Sc2ccc(C(F)(F)F)cc21 (stereo unspecified),130 to 132
6,CN(C)c1nc2sc3c(NCCN4CCOCC4)ncnc3c2c2c1COC(C)(C)C2,195 to 196
7,CCc1cn(C[C@@H](C)O)c2cc(Cl)c(F)cc12,112 to 114
8,C[C@@H]1CN(C(=O)c2cc3c(C(=O)OC(C)(C)C)ncn3c3ccccc23)C[C@H](C)N1,233 to 234
9,CC1SC(=O)NN=C1c1ccc2c(c1)C(=NNC(N)=S)C(=O)N2 (stereo unspecified),300
10,O=Cc1cc(Cl)c(O)c(O)c1Cl,176 to 178
11,CS(=O)(=O)NCCn1c(CCO)nc2c(N)nc3cccnc3c21,136 to 138
12,COc1ccc(/C(C#N)=C/c2ccc(OC)c(OC3CCCC3)c2)cc1OC,101 to 103
13,CCOC(=O)c1ccc(/C=C(\C)c2ccc3c(c2)C(C)(C)CCCC3)cc1,69 to 70
14,CCCc1c2c(c(OC)c3c(=O)cc(C(=O)OC)oc13)CCCC2,92 to 93
15,CCCCC(CC)COc1cc2c3c(c4cc(OCC(CC)CCCC)c(OCC(CC)CCCC)cc4c2cc1OCC(CC)CCCC)C(=O)C=CC3=O (stereo unspecified),105 to 107
16,CC(C)(C)OC(=O)CCCCCCCCCC[N+](=O)[O-],39 to 42
17,O=C1C(Cl)C(CCl)CN1c1cccc(Cl)c1 (stereo unspecified),93 to 94
18,COc1ccc2cccc3c2c1C(CC(=O)O)CC3 (stereo unspecified),147
19,COCCOC(=O)NC(=O)CCl,97 to 99

row,Structure (SMILES),melting point [°C]
1,NCCC(O)C(C(=O)O)N1CCC1=O (stereo unspecified),152 to 154
2,CSc1nc(O)c(-c2ccccc2F)c(O)n1,> 240
3,CCOC(=O)CN1C(=O)C(N=[N+]=[N-])CCc2ccc(OC)cc21 (stereo unspecified),90 to 91
4,CC(C)CCNC(=NC#N)Nc1cccnc1,136
5,CCN(CCCN1CCN(c2ccccc2OC)CC1)C1CCc2ncsc2C1 (stereo unspecified),64
6,Cc1cc2c(nc1C(O)c1cccnc1)CCCCC2 (stereo unspecified),124 to 126
7,OCc1cn(-c2ccc3c(c2)OC(F)(F)O3)cn1,163 to 164
8,COc1ccc2c(c1)c1c(n2C)CC(C(N)=O)C1 (stereo unspecified),178 to 180
9,COc1ccc(Oc2c(C)cc(CO)cc2C)cc1C(C)C,78 to 80
10,CN(C)c1ccc(C(=O)CC(=O)C(C)(C)C)cc1,61.5 to 61.8
11,COc1ccc(CNC(N)=O)cc1OC,172 to 173
12,Cc1cc2c3c(c1)C1(CC(=O)NC1=O)C(=O)N3CCC2 (stereo unspecified),165 to 167
13,CCCCCCCCCCCCCCC(OC)C(=O)OC (stereo unspecified),28.6 to 30.6
14,CC(=O)N(C)C12CCCCC1Oc1ccccc12 (stereo unspecified),138 to 139
15,CCCCCCCCCCCCCCCc1c([N+](=O)[O-])cc([N+](=O)[O-])c(O)c1[N+](=O)[O-],53 to 56
16,OC[C@H]1C2CCC(C2)[C@@H]1CO,58
17,CSc1cc(C)nc(SC)c1NC(=O)CCCCCSc1nc2ccccc2o1,120 to 121
18,CCCS(=O)C1(S(=O)(=O)NC(C)(C)C)C=CC=CN1 (stereo unspecified),138 to 140
19,COC(=O)C(=O)c1nsc(NC(=O)OCc2ccccc2)n1,144 to 147

row,Structure (SMILES),melting point [°C]
1,Cc1cc(OCC2CO2)c(N)c([N+](=O)[O-])c1 (stereo unspecified),90 to 91
2,COc1ccc2c3cc(C(=O)N4CCCCC4)ccc3n(CC3CCCCC3)c2c1,91 to 92
3,C(#Cc1cccs1)c1ccccc1,49 to 59
4,CC(C)Oc1ccc([N+](=O)[O-])cc1C(=O)O,124 to 125
5,COc1ccc2c(c1)Sc1ccccc1CN2C=O,98 to 100
6,COc1ncc(C=O)cc1Cl,152
7,CCOC(=O)CNCc1cc(N(C)C)ccc1[N+](=O)[O-],70 to 72
8,CN(C)c1ccc(C=CC(=O)C=Cc2ccc(N(C)C)cc2)cc1,174 to 176
9,CC1(C)COP(=O)(O)OC1c1ccc2ccccc2c1 (stereo unspecified),237 to 238
10,CC(=S)O/C=C\n1nnnc1C,135 to 137
11,O=C1SC(Cc2ccc(OCCn3ccc4ccccc43)cc2)C(=O)N1C(c1ccccc1)(c1ccccc1)c1ccccc1 (stereo unspecified),63.5 to 65.9
12,COCCOCOCc1c(OC)ccc2c1Oc1c(ccc(OC)c1CO)N2C,68 to 70
13,N#CC(N)C(=O)c1ccc(C=O)cc1 (stereo unspecified),122 to 125
14,CC(C)[C@H](O)[C@@H](CCCCOc1cc(F)ccc1F)n1nc[nH]c1=S (racemic),97
15,ON=C1c2ncc(Cl)cc2C=CC1Cl (stereo unspecified),202
16,O=CNN(Cc1ccccc1[N+](=O)[O-])c1ccccc1,140 to 142
17,CC1Sc2c(C(=O)O)c(=O)c3cc(F)c(N4CCC(O)C4)cc3n21 (stereo unspecified),206 to 208
18,COc1ccccc1N1CCN(CCCC2(c3ccc(F)cc3)OCc3cc(C#N)ccc32)CC1 (stereo unspecified),147 to 149
